These results are taken from US10300058B2, “Tyrosine kinase inhibitor and uses thereof” (Xuanzhu Pharma Co., Ltd., priority 2014, dated 2019).

The target of one series is wild-type EGFR (WT EGFR) (Homo sapiens (Human), UniProt P00533). Briefly: Mobility Shift Assay, in vitro enzyme-inhibiting activity, wild-type EGFR. It is filed as biochemical. Conditions: Km ATP. A digest of the protocol: (§1)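 Compounds in 4-fold dilutions (10 concentrations) preincubated 10 min at room temperature with enzyme, then kinase reaction at 28° C for kinase-dependent time before stop solution. Percent substrate conversion read by Caliper mobility shift; inhibition versus DMSO and blank controls, IC50 fitted.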
wild-type EGFR (WT EGFR), sequence (P00533 25-1210): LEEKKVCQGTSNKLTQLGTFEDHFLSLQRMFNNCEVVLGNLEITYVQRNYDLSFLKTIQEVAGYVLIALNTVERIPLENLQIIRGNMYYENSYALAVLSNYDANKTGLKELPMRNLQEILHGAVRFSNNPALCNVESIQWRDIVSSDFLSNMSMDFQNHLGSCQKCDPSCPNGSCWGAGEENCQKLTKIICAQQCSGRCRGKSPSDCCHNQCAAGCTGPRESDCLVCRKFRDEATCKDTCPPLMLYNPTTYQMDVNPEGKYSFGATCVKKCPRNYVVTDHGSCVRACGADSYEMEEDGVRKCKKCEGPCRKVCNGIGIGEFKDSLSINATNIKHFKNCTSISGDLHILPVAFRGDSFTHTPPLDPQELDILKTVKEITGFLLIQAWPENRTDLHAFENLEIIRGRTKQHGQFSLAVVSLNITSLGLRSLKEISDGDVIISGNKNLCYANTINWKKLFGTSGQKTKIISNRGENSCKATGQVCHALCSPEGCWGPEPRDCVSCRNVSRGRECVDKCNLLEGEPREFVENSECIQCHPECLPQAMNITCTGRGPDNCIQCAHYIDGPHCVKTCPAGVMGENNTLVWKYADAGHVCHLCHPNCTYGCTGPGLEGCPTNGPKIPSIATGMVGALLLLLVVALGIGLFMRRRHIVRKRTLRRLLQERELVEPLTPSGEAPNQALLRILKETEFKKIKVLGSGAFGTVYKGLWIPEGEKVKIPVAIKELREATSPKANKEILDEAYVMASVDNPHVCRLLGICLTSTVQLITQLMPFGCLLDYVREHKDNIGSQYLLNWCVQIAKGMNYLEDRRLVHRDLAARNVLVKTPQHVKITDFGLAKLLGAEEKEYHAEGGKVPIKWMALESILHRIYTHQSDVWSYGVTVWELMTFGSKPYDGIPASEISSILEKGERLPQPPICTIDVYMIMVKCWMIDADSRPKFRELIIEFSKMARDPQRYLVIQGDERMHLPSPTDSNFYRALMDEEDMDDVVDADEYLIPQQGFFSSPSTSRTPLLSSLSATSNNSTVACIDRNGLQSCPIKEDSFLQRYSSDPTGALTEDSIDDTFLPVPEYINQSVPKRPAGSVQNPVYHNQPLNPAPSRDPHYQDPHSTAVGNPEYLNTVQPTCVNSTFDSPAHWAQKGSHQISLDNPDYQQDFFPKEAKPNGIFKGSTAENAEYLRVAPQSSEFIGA

Another series concerns the target EGFR T790M-L858R (Homo sapiens (Human), UniProt P00533, L858R/T790M). Briefly: Mobility Shift Assay, in vitro enzyme-inhibiting activity, EGFR T790M-L858R. The series is classed as biochemical. As to conditions: for IC50: Km ATP; for Selectivity WT/T790M-L858R: ratio of IC50. A digest of the protocol:
as §1

The target of the next series is EGFR (d746-750) (Homo sapiens (Human), UniProt P00533, DEL746-750). Briefly: Mobility Shift Assay, in vitro enzyme-inhibiting activity, EGFR (d746-750). As to conditions: for IC50: Km ATP; for Selectivity WT/d746-750: ratio of IC50. The series is classed as biochemical. The method in brief:
as §1

Series [1] relates to H1975 cell (EGFR-T790M/L858R double mutation). Briefly: In vitro cytologic activity, Celltiter-Glo, H1975 cells. Conditions: for IC50: Homo sapiens, NCI-H1975, 72 h, 72 h, Celltiter-Glo; for Selectivity (A431/H1975): ratio of IC50. The series is classed as cell-based, human. A digest of the protocol: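 H1975 cells (2000/well) and A431 cells (3000/well) were seeded overnight at 37 °C, 5% CO2 in medium with 10% FBS, then dosed with 10-point compound dilution series from a 10 mM DMSO stock. 0.5% DMSO served as high control and 1000 nM as low control. Viability was read by CellTiter-Glo luminescence.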

Another series can be described thus: Pharmacokinetics in dog. As to conditions: Beagle dog; for pharmacokinetic properties (conclusion in words): iv and po, Tables 13 and 14; for AUC(0-t) / clearance / Vd / Cmax / Tmax / bioavailability: male, plasma; for Vd: read-out: Vss; for bioavailability: read-out: F (absolute bioavailability). It is filed as in vivo, male Beagle dog. As for the experimental part: Test animal: male Beagle dog, 3 dogs/administration route/compound, weight: 7-12 kg.
Solvent for intraveneous injection (iv) of Compound 31: 20% DMF (N,N-dimethylformamide)+20% PEG400 (polyethylene glycol 400)+60% sterile water for injection
Compound 31 (15.40 mg) was weighed, dissolved in solvent for intraveneous injection ultrasonically, and mixed homogeneously under vortexing, to get a clear and transparent compound solution at a theoretical concentration of 0.5 mg/mL.
Solvent for intraveneous injection (iv) of Compound 2, 28: 5% DMSO+10% PEG400+85% (28% HP-β-CD)
Compound 2 (20.72 mg) and Compound 28 (16.16 mg) were weighed, respectively, dissolved by adding solvent for intraveneous injection, mixed homogeneously under vortexing, placed in a 50° C. constant temperature water bath for 20 min, and mixed homogeneously under vortexing to get a clear and transparent compound solution at a theoretical concentration of 0.5 mg/mL.
Solvent for intragastric administration (po) of Compound 2, 28, 31: 0.1% Tween 80+2% HPC (hydroxypropyl cellulose)
Preparation: HPC (hydroxypropyl cellulose) (20 g) was weighed, and slowly added to purified water (1000 mL) under stirring. Tween 80 (1 mL) was added, and the mixture was stirred until it became clear, to get a solvent for intragastric administration. Compound 2 (41.77 mg), Compound 31 (31.35 mg) and Compound 28 (31.10 mg) were weighed, respectively, solvent for intragastric administration was added, and the resultant mixture was placed in a tissue grinder, and ground at a speed of 1000 r/min. After homogeneous dispersion, the solution for intragastric administration was obtained.
For PO group: 0.167, 0.5, 1, 2, 4, 6, 8, 24 h after administration.
Blood collection: 400 μL whole blood was collected from vein of dog fore limb at each time point, added to an anticoagulation tube containing K2EDTA, and centrifuged at 8000 r/min, 4° C. for 6 min in a centrifuge to separate the plasma; the separated plasma was stored in a refrigerator at −80° C.
By means of protein precipitation, to 30 μL plasma, 200 μL internal standard (acetonitrile solution containing 50 ng/mL CNX-2006) was added; the resultant mixture was vortexted for 10 min at 1500 r/min, and centrifuged at 12000 r/min for 5 min; to a suitable amount of supernatant, a suitable amount of water was added; the resultant mixture was mixed homogeneously under vortexing and analyzed by LC-MS/MS.

Setting [2] is: Table 8, read-out: IC50 EGFRT790M-L858R.

Structures are written as SMILES. Like-named read-outs stand apart in the source and are kept apart here.

EGFR (d746-750), sequence (P00533 other isoform, or with tags, fused parts or gaps del 1-668/del 746-750 limits assumed): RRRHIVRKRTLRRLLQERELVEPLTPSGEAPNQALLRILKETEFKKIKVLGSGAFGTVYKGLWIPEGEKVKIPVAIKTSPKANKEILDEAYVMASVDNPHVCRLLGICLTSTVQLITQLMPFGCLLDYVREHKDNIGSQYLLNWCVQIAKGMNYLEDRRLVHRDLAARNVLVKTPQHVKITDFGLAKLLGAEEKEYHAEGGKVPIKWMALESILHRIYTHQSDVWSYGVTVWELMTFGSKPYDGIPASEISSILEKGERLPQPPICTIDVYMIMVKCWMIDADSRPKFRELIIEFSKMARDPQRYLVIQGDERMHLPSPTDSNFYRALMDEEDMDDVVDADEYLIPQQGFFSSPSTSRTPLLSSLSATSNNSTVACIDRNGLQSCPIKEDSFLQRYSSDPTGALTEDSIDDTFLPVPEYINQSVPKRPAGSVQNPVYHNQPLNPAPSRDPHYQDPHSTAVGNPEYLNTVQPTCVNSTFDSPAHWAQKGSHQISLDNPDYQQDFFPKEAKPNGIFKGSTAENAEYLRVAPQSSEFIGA
EGFR T790M-L858R, sequence (P00533 25-1210 T790M/L858R): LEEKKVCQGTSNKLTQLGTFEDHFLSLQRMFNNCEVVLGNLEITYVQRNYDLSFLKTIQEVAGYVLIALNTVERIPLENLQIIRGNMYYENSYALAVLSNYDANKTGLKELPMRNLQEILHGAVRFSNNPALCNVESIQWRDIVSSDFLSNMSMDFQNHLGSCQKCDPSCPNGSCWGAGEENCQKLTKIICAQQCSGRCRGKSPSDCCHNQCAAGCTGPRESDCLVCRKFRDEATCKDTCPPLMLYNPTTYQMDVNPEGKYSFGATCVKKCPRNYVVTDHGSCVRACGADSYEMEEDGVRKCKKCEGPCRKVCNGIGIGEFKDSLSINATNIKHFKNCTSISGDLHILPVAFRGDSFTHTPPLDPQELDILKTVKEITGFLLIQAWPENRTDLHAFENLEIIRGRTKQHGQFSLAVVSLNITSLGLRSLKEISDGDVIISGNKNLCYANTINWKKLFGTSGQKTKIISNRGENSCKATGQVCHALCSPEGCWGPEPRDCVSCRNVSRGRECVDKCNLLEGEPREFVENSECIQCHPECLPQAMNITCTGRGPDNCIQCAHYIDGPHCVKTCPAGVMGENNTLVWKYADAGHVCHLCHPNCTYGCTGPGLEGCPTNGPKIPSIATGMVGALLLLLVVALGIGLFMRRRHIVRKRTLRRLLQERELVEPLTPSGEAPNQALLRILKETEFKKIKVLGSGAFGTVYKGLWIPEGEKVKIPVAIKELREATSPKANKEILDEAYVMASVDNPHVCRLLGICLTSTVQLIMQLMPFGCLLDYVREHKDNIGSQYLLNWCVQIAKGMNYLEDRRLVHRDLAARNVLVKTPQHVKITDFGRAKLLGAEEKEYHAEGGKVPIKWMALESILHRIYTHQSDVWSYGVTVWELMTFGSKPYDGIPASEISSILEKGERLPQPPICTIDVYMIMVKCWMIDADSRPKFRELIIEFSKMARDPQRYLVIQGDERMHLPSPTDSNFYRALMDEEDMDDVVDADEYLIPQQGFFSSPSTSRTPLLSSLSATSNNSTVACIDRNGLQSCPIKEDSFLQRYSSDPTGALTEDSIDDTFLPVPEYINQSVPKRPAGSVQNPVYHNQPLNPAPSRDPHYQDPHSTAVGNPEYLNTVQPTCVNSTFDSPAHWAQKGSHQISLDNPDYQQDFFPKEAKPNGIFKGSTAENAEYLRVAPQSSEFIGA

With `C=CC(=O)Nc1cccc(Nc2nc(Nc3ccc(C4CCN(C(C)=O)CC4)cc3OC)ncc2C(F)(F)F)c1` [Compound 2, N-(3-((2-((4-(1-acetylpiperidin-4-yl)-2-methoxyphenyl)amino)-5-(trifluoromethyl)pyrimidin-4-yl)amino)phenyl)acrylamide], the half-inhibitory concentration (IC50) on wild-type EGFR (WT EGFR) (Table 1) stood at 0.552 µM. The IC50 on wild-type EGFR (WT EGFR) (Table 5) came out at 0.344 µM. On EGFR T790M-L858R (Table 5), the IC50 was found to be 0.0025 µM and the “Selectivity WT/T790M-L858R” value is given as 140.2. On EGFR (d746-750) (Table 5), the IC50 stood at 0.0242 µM and the “Selectivity WT/d746-750” value worked out at 14.2. In addition, in series [1] (Table 9), half-maximal inhibition (IC50) was put at 0.104 µM and the “Selectivity (A431/H1975)” value turned out to be 17.7. Further, in “Pharmacokinetics in dog”, the “pharmacokinetic properties (conclusion in words)” value (shortened to “pharmacokinetic properties”) is “good pharmacokinetic properties”. Further, in “Pharmacokinetics in dog” (iv, 0.5 mg/kg), the AUC(0-t) stood at 693 ng·h/mL, the clearance was 11.8 mL/min/kg and the Vd turned out to be 1.36 L/kg. In “Pharmacokinetics in dog” (po, 0.54 mg/kg), the AUC(0-t) came out at 528 ng·h/mL, the Cmax stood at 211 ng/mL, the time of peak concentration (Tmax) is 0.5 h and the bioavailability came to 70%.

With `C=CC(=O)Nc1cccc(Nc2nc(Nc3ccc(C4CCN(S(C)(=O)=O)CC4)cc3OC)ncc2C(F)(F)F)c1` [Compound 27, N-(3-((2-((2-methoxy-4-(1-(methylsulfonyl)piperidin-4-yl)phenyl)amino)-5-(trifluoromethyl)pyrimidin-4-yl)amino)phenyl)acrylamide], the concentration for half-maximal inhibition (IC50) at wild-type EGFR (WT EGFR) (Table 4, unit inferred) was determined as 0.871 µM; at EGFR T790M-L858R (setting [2]) it was 0.0098 µM; at EGFR (d746-750) (Table 8) it was 0.036 µM; in series [1] (Table 10, unit inferred), 0.278 µM. Moreover, the “Selectivity (A431/H1975)” value in series [1] (Table 10) is 10.0.

Take `C=CC(=O)Nc1cccc(Nc2nc(Nc3ccc(N4CCC(N5CCOCC5)CC4)cc3OC)ncc2C(F)(F)F)c1` [Compound 28, N-(3-((2-((2-methoxy-4-(4-morpholinopiperidin-1-yl)phenyl)amino)-5-(trifluoromethyl)pyrimidin-4-yl)amino)phenyl)acrylamide]: the IC50 at wild-type EGFR (WT EGFR) (Table 4, unit inferred) is 0.073 µM. The IC50 on EGFR T790M-L858R (setting [2]) was found to be 0.0015 µM. The IC50 on EGFR (d746-750) (Table 8) is 0.0055 µM. For the same molecule, half-maximal inhibition in series [1] (Table 10, unit inferred) (IC50) required 0.0752 µM. The “Selectivity (A431/H1975)” value in series [1] (Table 10) is on record as 9.4. In addition, the “pharmacokinetic properties” value in “Pharmacokinetics in dog” is “good pharmacokinetic properties”. Besides, in the series “Pharmacokinetics in dog” (iv, 0.5 mg/kg), the AUC(0-t) amounted to 1580 ng·h/mL, the clearance is 5.5 mL/min/kg and the Vd was determined as 1.1 L/kg. Further, in the series “Pharmacokinetics in dog” (po, 1.28 mg/kg), the area under the curve AUC(0-t) stood at 1820 ng·h/mL, the highest level (Cmax) was 523 ng/mL, the Tmax was determined as 1 h and the bioavailability is 46%.

In the case of `C=CC(=O)Nc1cccc(Nc2nc(Nc3ccc(N4CC5(CN(C(C)=O)C5)C4)cc3OC)ncc2C(F)(F)F)c1` [Compound 31, N-(3-((2-((4-(6-acetyl-2,6-diazaspiro[3.3]heptan-2-yl)-2-methoxyphenyl)amino)-5-(trifluoromethyl)pyrimidin-4-yl)amino)phenyl)acrylamide], the IC50 on wild-type EGFR (WT EGFR) (Table 7) amounted to 0.21 µM. Also, at EGFR T790M-L858R (Table 7), the IC50 came to 0.00473 µM and the “Selectivity WT/T790M-L858R” value was 44.4. On EGFR (d746-750) (Table 7), the IC50 is 0.0286 µM and the “Selectivity WT/d746-750” value came to 7.4. The half-inhibitory concentration (IC50) in series [1] (Table 10, unit inferred) was 0.278 µM. Besides, the “Selectivity (A431/H1975)” value in series [1] (Table 10) is 9.8. In addition, the “pharmacokinetic properties” value in the series “Pharmacokinetics in dog” is reported as “good pharmacokinetic properties”. Moreover, in “Pharmacokinetics in dog” (iv, 0.5 mg/kg), the area under the curve AUC(0-t) is 1270 ng·h/mL, the clearance was 6.67 mL/min/kg and the Vd was found to be 0.38 L/kg. Besides, in the series “Pharmacokinetics in dog” (po, 1 mg/kg), the exposure AUC(0-t) was 545 ng·h/mL, the Cmax was found to be 261 ng/mL, the Tmax turned out to be 1 h and the bioavailability is 23%.
